Source: the supplement of paper PMC11451515

System: SEM cells
Experiment: cell viability relative to DMSO control; higher = less cytotoxic
Conditions: 48 h
Outline: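 Library compounds in DMSO were pin-dosed in an 11-point threefold series (47 μM to 0.79 nM) onto leukemia cells in 1536-well plates (5 μl). Plates held 500 cells/well of NOMO1 or SEM or 1000 cells/well of P12-Ichikawa, each adapted for at least four passages in each medium. Luminescence was read with CellTiter-Glo One after 48 h at 37°C. Viability means the per-plate percentage relative to DMSO wells, using cell-free wells as background.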

[1] = HPLM + 10% dialyzed FBS, 0.000781 µM
[2] = HPLM + 10% dialyzed FBS, 0.00234 µM
[3] = HPLM + 10% dialyzed FBS, 0.00702 µM
[4] = HPLM + 10% dialyzed FBS, 0.0211 µM
[5] = HPLM + 10% dialyzed FBS, 0.0632 µM
[6] = HPLM + 10% dialyzed FBS, 0.19 µM
[7] = HPLM + 10% dialyzed FBS, 0.569 µM
[8] = HPLM + 10% dialyzed FBS, 1.71 µM
[9] = HPLM + 10% dialyzed FBS, 5.12 µM
[10] = HPLM + 10% dialyzed FBS, 15.4 µM
[11] = HPLM + 10% dialyzed FBS, 46.1 µM
[12] = RPMI 5 mM glucose + 10% FBS, 0.000781 µM
[13] = RPMI 5 mM glucose + 10% FBS, 0.00234 µM
[14] = RPMI 5 mM glucose + 10% FBS, 0.00702 µM
[15] = RPMI 5 mM glucose + 10% FBS, 0.0211 µM
[16] = RPMI 5 mM glucose + 10% FBS, 0.0632 µM
[17] = RPMI 5 mM glucose + 10% FBS, 0.19 µM
[18] = RPMI 5 mM glucose + 10% FBS, 0.569 µM
[19] = RPMI 5 mM glucose + 10% FBS, 1.71 µM
[20] = RPMI 5 mM glucose + 10% FBS, 5.12 µM
[21] = RPMI 5 mM glucose + 10% FBS, 15.4 µM
[22] = RPMI 5 mM glucose + 10% FBS, 46.1 µM
[23] = RPMI 5 mM glucose + 10% dialyzed FBS, 0.000781 µM
[24] = RPMI 5 mM glucose + 10% dialyzed FBS, 0.00234 µM
[25] = RPMI 5 mM glucose + 10% dialyzed FBS, 0.00702 µM
[26] = RPMI 5 mM glucose + 10% dialyzed FBS, 0.0211 µM
[27] = RPMI 5 mM glucose + 10% dialyzed FBS, 0.0632 µM
[28] = RPMI 5 mM glucose + 10% dialyzed FBS, 0.19 µM
[29] = RPMI 5 mM glucose + 10% dialyzed FBS, 0.569 µM
[30] = RPMI 5 mM glucose + 10% dialyzed FBS, 1.71 µM
[31] = RPMI 5 mM glucose + 10% dialyzed FBS, 5.12 µM
[32] = RPMI 5 mM glucose + 10% dialyzed FBS, 15.4 µM
[33] = RPMI 5 mM glucose + 10% dialyzed FBS, 46.1 µM

[O-]C(=O)C/1=N/C(=O)NC(=O)N1 showed a cell viability [1] of 95.8%, a cell viability [2] of 99.2% and a cell viability [3] of 93.4%. It also gave a cell viability [4] of 111%, a cell viability [5] of 85.1% and a cell viability [6] of 20.6%. It also gave a cell viability [7] of 94.8%, a cell viability [8] of 99.8% and a cell viability [9] of 100%. For the same compound, the cell viability [10] was 91.6%, the cell viability [11] was 84.3% and the cell viability [12] was 93.7%. The cell viability [13] was 99.6%, the cell viability [14] was 95.6% and the cell viability [15] was 93.6%. The cell viability [16] was 87.4%, the cell viability [17] was 34.2% and the cell viability [18] was 90.8%. It also gave a cell viability [19] of 83.7%, a cell viability [20] of 100% and a cell viability [21] of 88.1%. For the same compound, the cell viability [22] was 83.7%, the cell viability [23] was 97.1% and the cell viability [24] was 100%. It also gave a cell viability [25] of 101%, a cell viability [26] of 106% and a cell viability [27] of 100%. For the same compound, the cell viability [28] was 34.7%, the cell viability [29] was 96.8% and the cell viability [30] was 89.8%. It also gave a cell viability [31] of 104%, a cell viability [32] of 88.7% and a cell viability [33] of 91.8%.
In the case of CN1CCN(c2c(F)cc3c(=O)c(C(=O)O)cn(CCF)c3c2F)CC1, the cell viability [1] was 84.2%, the cell viability [2] was 85.3% and the cell viability [3] was 103%. It also gave a cell viability [4] of 118%, a cell viability [5] of 108% and a cell viability [6] of 105%. It also gave a cell viability [7] of 100%, a cell viability [8] of 109% and a cell viability [9] of 109%. It also gave a cell viability [10] of 105%, a cell viability [11] of 110% and a cell viability [12] of 96.4%. The cell viability [13] was 96.4%, the cell viability [14] was 108% and the cell viability [15] was 105%. It also gave a cell viability [16] of 110%, a cell viability [17] of 104% and a cell viability [18] of 116%. For the same compound, the cell viability [19] was 111%, the cell viability [20] was 125% and the cell viability [21] was 118%. The cell viability [22] was 101%, the cell viability [23] was 105% and the cell viability [24] was 92.6%. It also gave a cell viability [25] of 123%, a cell viability [26] of 113% and a cell viability [27] of 111%. The cell viability [28] was 112%, the cell viability [29] was 117% and the cell viability [30] was 129%. For the same compound, the cell viability [31] was 111%, the cell viability [32] was 114% and the cell viability [33] was 118%.
CC[C@]12CC[C@H]3[C@@H](CCC/4=C/C(=O)CC[C@H]34)[C@@H]1CC[C@@]2(O)C#C showed a cell viability [1] of 93.7%, a cell viability [2] of 79.6% and a cell viability [3] of 97.7%. For the same compound, the cell viability [4] was 92.4%, the cell viability [5] was 103% and the cell viability [6] was 83.1%. For the same compound, the cell viability [7] was 87.8%, the cell viability [8] was 77.9% and the cell viability [9] was 83.6%. The cell viability [10] was 80.9%, the cell viability [11] was 82.8% and the cell viability [12] was 85.7%. It also gave a cell viability [13] of 102%, a cell viability [14] of 102% and a cell viability [15] of 109%. For the same compound, the cell viability [16] was 108%, the cell viability [17] was 85.2% and the cell viability [18] was 86.9%. It also gave a cell viability [19] of 86.5%, a cell viability [20] of 97.9% and a cell viability [21] of 87.4%. For the same compound, the cell viability [22] was 96.5%, the cell viability [23] was 103% and the cell viability [24] was 90.3%. For the same compound, the cell viability [25] was 81.9%, the cell viability [26] was 102% and the cell viability [27] was 101%. For the same compound, the cell viability [28] was 96.8%, the cell viability [29] was 101% and the cell viability [30] was 114%. It also gave a cell viability [31] of 94.8%, a cell viability [32] of 111% and a cell viability [33] of 105%.
Compound CCOc1cc2ncc(C#N)c(Nc3ccc(F)c(Cl)c3)c2cc1NC(=O)/C=C/CN(C)C has a cell viability [1] of 88.3%, a cell viability [2] of 118% and a cell viability [3] of 120%. It also gave a cell viability [4] of 123%, a cell viability [5] of 118% and a cell viability [6] of 73.1%. For the same compound, the cell viability [7] was 71%, the cell viability [8] was 55.6% and the cell viability [9] was 37.4%. For the same compound, the cell viability [10] was 20.1%, the cell viability [11] was 4.15% and the cell viability [12] was 75.1%. It also gave a cell viability [13] of 110%, a cell viability [14] of 108% and a cell viability [15] of 114%. The cell viability [16] was 116%, the cell viability [17] was 58.9% and the cell viability [18] was 52.1%. It also gave a cell viability [19] of 40.2%, a cell viability [20] of 24.5% and a cell viability [21] of 11.5%. The cell viability [22] was 3.17%, the cell viability [23] was 79.9% and the cell viability [24] was 115%. The cell viability [25] was 131%, the cell viability [26] was 120% and the cell viability [27] was 126%. The cell viability [28] was 66.2%, the cell viability [29] was 67.3% and the cell viability [30] was 52%. It also gave a cell viability [31] of 29.9%, a cell viability [32] of 11.7% and a cell viability [33] of 3.53%.
